Measurements: US20120022054A1, “NOVEL SUBSTITUTED ARYL DERIVATIVES, THEIR PROCESS OF PREPARATION AND THEIR THERAPEUTICAL USES AS ANTI-HIV AGENTS” (priority 2008, published 2012)
Like-named read-outs stand apart in the source and are kept apart here.

Legend:
[1] = tested on: Env-deleted NL4-3 vector virus pseudotyped with the VSV g envelope; assay: microbe, parasite or virus in culture; assay type: cell-based, HIV-1; conditions: Vesicular stomatitis virus, NL43, SUP-T1, 48 h, read-out: EC50 for antiviral activity (50% inhibition of luciferase activity)
[2] = tested on: NL4-3 strain of HIV-1; assay: Multiple cycle infection assay of CAp24 antigen production; assay type: cell-based; conditions: Human immunodeficiency virus 1, NL43, SUP-T1, 96 h, read-out: EC50 for antiviral activity (50% inhibition of CA p24 production)
[3] = multiple cycle infection with NL4-3 virus, SupT1, MT4 or PBMC, MOI 0.01, day 4 and day −6 post-infection, threshold below 5 μM

SMILES	EC50 [1] [µM]	EC50 [2, 3] [µM]	EC50 [2] [µM]
COc1ccc(SCCCC(=O)N(C)Cc2cc(F)ccc2OC(C)C)cc1 [Example 117, N-(5-fluoro-2-isopropoxybenzyl)-4-[(4-methoxyphenyl)thio]-N-methylbutanamide]	< 5	< 5	
COc1ccc(SCCCC(=O)N(C)Cc2cc(C)ccc2OC)cc1 [Example 119, 4-[(4-methoxyphenyl)thio]-N-[2-methoxy-5-methylbenzyl]-N-methylbutanamide]	< 5	< 5	
COc1ccc(C)cc1CN(C)C(=O)CCCn1ccc2ccc(F)cc21 [Example 121, 4-(6-fluoro-1H-indol-1-yl)-N-(2-methoxy-5-methylbenzyl)-N-methylbutanamide]	< 5	< 5	
CN(Cc1ccccc1-c1ccco1)C(=O)CCCn1ccc2cc(F)ccc21 [Example 122, 4-(5-fluoro-1H-indol-1-yl)-N-(2-(furan-2-yl)benzyl)-N-methylbutanamide]	< 5	< 5	
COc1ccc(SCCCC(=O)N(C)Cc2cc(C)ccc2N2CCOCC2)cc1 [Example 124, 4-[(4-methoxyphenyl)thio]-N-[5-methyl-2-(morpholin-4-yl)benzyl]-N-methylbutanamide]	< 5	< 5	
COc1ccccc1N(C)C(=O)CCCSc1ccc(F)cc1 [Example 126, 4-[(4-Fluorophenyl)thio]-N-(2-methoxyphenyl)-N-methylbutanamide]	< 5	< 5	
CN(C(=O)CCCSc1ccc(F)cc1)c1cccc2cnccc12 [Example 131, 4-[(4-fluorophenyl)thio]-N-isoquinolin-5-yl-N-methylbutanamide]	< 5	< 5	
COc1ccc([S+]([O-])CCCC(=O)N(C)c2nccc3ccccc23)cc1 (stereo not shown) [Example 133, N-isoquinolin-1-yl-4-[(4-methoxyphenyl)sulfinyl]-N-methylbutanamide]	< 5	< 5	
COc1ccccc1CN(C)C(=O)CCCSc1ccc(F)c(Cl)c1 [Example 141, 4-[(3-Chloro-4-fluorophenyl)thio]-N-(2-methoxybenzyl)-N-methylbutanamide]	< 5	< 5	
COC(=O)c1ccc(SCCCC(=O)N(C)Cc2cc(F)ccc2OC)cc1 [Example 147, Methyl 4-({4-[(5-fluoro-2-methoxybenzyl)methylamino]-4-oxobutyl}thio)benzoate]	< 5	< 5	
COc1ccc(F)cc1CN(C)C(=O)CCCSc1ccc(CO)cc1 [Example 148, N-(5-fluoro-2-methoxybenzyl)-4-{[4-(hydroxymethyl)phenyl]thio}-N-methylbutanamide]	< 5	< 5	
COc1ccccc1CN(C)C(=S)CCCSc1ccc(O)cc1 [Example 164, 4-[(4-Hydroxyphenyl)thio]-N-(2-methoxybenzyl)-N-methylbutanethioamide]	< 5	< 5	
CN(Cc1ccccc1C1=CCNCC1)C(=O)CCCSc1ccc(O)cc1 [Example 168, 4-[(4-Hydroxyphenyl)thio]-N-methyl-N-[2-(1,2,3,6-tetrahydropyridin-4-yl)benzyl]butanamide]	< 5		< 5
CCOC(=O)c1cc(F)ccc1SCCCC(=O)N(C)c1cccc(F)c1 [Example 193, Ethyl 5-fluoro-2-({4-[(3-fluorophenyl)(methyl)amino]-4-oxobutyl}thio)benzoate]	< 5	< 5	
